We go through 3 molecules from publication PMC4113810, “Hainanerectamines A–C, Alkaloids from the Hainan Sponge Hyrtios erecta” (Marine Drugs, 2014).

This assay deals with T1, Aurora A (Homo sapiens, UniProt O14965).
T1 construct: gene AURKA
T1 sequence (O14965 1-403): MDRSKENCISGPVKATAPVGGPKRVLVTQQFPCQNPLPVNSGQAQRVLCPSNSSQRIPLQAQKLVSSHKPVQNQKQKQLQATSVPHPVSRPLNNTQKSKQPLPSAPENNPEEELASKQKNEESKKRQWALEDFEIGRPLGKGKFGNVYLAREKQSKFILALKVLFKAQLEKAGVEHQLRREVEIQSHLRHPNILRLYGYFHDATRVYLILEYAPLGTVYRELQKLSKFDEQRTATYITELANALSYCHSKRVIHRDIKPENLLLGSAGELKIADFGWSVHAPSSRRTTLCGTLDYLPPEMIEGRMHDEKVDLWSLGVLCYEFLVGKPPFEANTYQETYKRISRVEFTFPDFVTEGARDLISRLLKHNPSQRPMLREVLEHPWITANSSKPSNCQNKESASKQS
The assay can be described thus: Z-LYTE kinase assay (peptide/kinase mixture with ATP, fluorescence). Type of assay: biochemical.
With `CSc1ncn(C)c1C[C@@H]1N[C@H](C(=O)O)Cc2c1[nH]c1ccc(O)cc21` [compound 4, hainanerectamine C], the concentration for half-maximal inhibition (IC50) – broadly, the concentration that inhibits the measured activity by half – was 49.9 µM.

Take `C/C=C(/C=O)c1c[nH]c2ccc(O)cc12` [compound 2, hainanerectamine B]: the concentration for half-maximal inhibition (IC50) is 122 µM.

As for `O=C(O)[C@@H]1Cc2c([nH]c3ccc(O)cc23)[C@H](Cc2c[nH]cn2)N1` [compound 3, (−)-(1R^*, 3R^*)-6-hydroxy-1-(4-methylene-1H-imidazole)-2,3,4,9-tetrahydro-1H-β-carboline-3-carboxylic acid], the IC50 was 43.5 µM.
